Laboratory results as given in patent EP3736570A1, “METHOD FOR THE DIAGNOSIS, SUB-CLASSIFICATION AND PROGNOSIS OF ACUTE KIDNEY INJURY BY DETECTING CCT7” (Fundación Instituto de Estudios de Ciencias de la Salud de …, priority 2019, dated 2020).
Structures can show the parent of a compound that is named as a salt. Where two headings read alike, the source gives them in different places.

Tests used:
MCT cells [1] = system: MCT cells
Procedure: Where not otherwise indicated, reagents were purchased from Sigma (Madrid, Spain). A mouse cortical tubule cell line (MCT) was used for the study. Cells were maintained in RPMI 1640 medium (Gibco, Madrid, Spain) supplemented with 10% fetal bovine serum (FBS, Gibco, Madrid, Spain), 500 U/mL penicillin, 50 mg/mL streptomycin (Gibco, Madrid, Spain) and 1 mM L-glutamine. […] During the treatments, cells were photographed under live cell, light microscope (Axiovert 200M, Zeiss; and Nikon Eclipse TS100, Barcelona, Spain) for visual inspection.
MTT assay. Viable cell number was comparatively estimated by incubating cell cultures with 0.5 mg/mL 3-[4,5-dimethylthiazol-2-yl]-2,5-diphrnyl tetrazolium bromide (MTT) for 4h. Then, 10% SDS in 0.01 M HCL was added in 1:1 (vol/vol) and left overnight at 37 °C. Finally, absorbance was measured at 570 nm as an index of viable cell number.

MCT cells [2] = system: MCT cells; remark: listed apart in the source
Procedure: (§4) Reagents, cells, and protocols. Where not otherwise indicated, reagents were purchased from Sigma (Madrid, Spain). A mouse cortical tubule cell line (MCT) was used for the study. Cells were maintained in RPMI 1640 medium (Gibco, Madrid, Spain) supplemented with 10% fetal bovine serum (FBS, Gibco, Madrid, Spain), 500 U/mL penicillin, 50 mg/mL streptomycin (Gibco, Madrid, Spain) and 1 mM L-glutamine. […] During the treatments, cells were photographed under live cell, light microscope (Axiovert 200M, Zeiss; and Nikon Eclipse TS100, Barcelona, Spain) for visual inspection. At the end, cell extracts were obtained in extraction buffer (25 mM PIPES, pH7; 25 mM KCI; 5 mM EGTA; 0,5% NP-40, and a mixture of protease inhibitors consisting of 1 mM phenylsulfonyl fluoride, 1 µg/mL leupeptine, and 1 µg/mL aprotinin). Protein content was determined with a commercial kit (Bio-Rad, Madrid, Spain) based in the Lowry method.

MCT cells [3] = system: MCT cells; remark: listed apart in the source
Procedure: (§5) A mouse cortical tubule cell line (MCT) was used for the study. Cells were maintained in RPMI 1640 medium (Gibco, Madrid, Spain) supplemented with 10% fetal bovine serum (FBS, Gibco, Madrid, Spain), 500 U/mL penicillin, 50 mg/mL streptomycin (Gibco, Madrid, Spain) and 1 mM L-glutamine. […] During the treatments, cells were photographed under live cell, light microscope (Axiovert 200M, Zeiss; and Nikon Eclipse TS100, Barcelona, Spain) for visual inspection. At the end, cell extracts were obtained in extraction buffer (25 mM PIPES, pH7; 25 mM KCI; 5 mM EGTA; 0,5% NP-40, and a mixture of protease inhibitors consisting of 1 mM phenylsulfonyl fluoride, 1 µg/mL leupeptine, and 1 µg/mL aprotinin). Protein content was determined with a commercial kit (Bio-Rad, Madrid, Spain) based in the Lowry method.
(§6) Caspase activity. Twenty micrograms of protein from cell extracts were incubated with 100 µL reaction buffer (50 mM HEPES, pH7.4; 100 mM NaCl; 1 mM EDTA; 0.1% 3-[3-(cholamidopropyl)-dimethylammonio]-1-propane sulfonate; 10% sucrose; and 5 mM DTT) containing 100 µM of the fluorogenic caspase substrate rhodamine 110, bis-(N-CBZ-L-aspartyl-L-glutamyl-L-valyl-L-aspartic acidamide (Z-DEVD)2Rh110; Anaspec, Fremont, CA, USA)) at 37 °C for 30 min in a Fluoroskan Ascent FL fluorometer (Thermo, Rockford, IL, USA), and fluorescence intensity was measured every 3 min at 538 nm, upon excitation at 485 nm. Caspase activity was calculated from the slope of the linear relationship between fluorescence intensity and time.

MCT cells [4] = test: Caspase (DEVDase) activity in cell extracts; type: cell-based, mouse; conditions: cisplatin, 18 h, concentration-dependent
Description: (§1) Reagents, cells, and protocols.
(§2) Caspase activity. […] Western blot.

MCT cells [5] = test: Internucleosomal DNA fragmentation; type: cell-based, mouse; conditions: cisplatin, 18 h, concentration-dependent
Procedure: as §1
DNA fragmentation. DNA fragmentation was determined with the commercial kit Cell Death Detection Plus (Roche Diagnostics, Barcelona, Spain) in 10 µg of protein from each cell extract.

MCT cells [6] = test: RT-qPCR analysis of gene expression; type: cell-based, mouse; conditions: 0-30 µM cisplatin, 18 h, normalized with RPS13
Procedure: as §1
RT-qPCR analysis. Total RNA was isolated using Nucleospin RNAII (Macherey-Nagel, Düren, Germany). First-strand cDNA was generated from 1 µg of total RNA using poly-dT as primer with the M-MLV reverse transcriptase (Promega, Barcelona, Spain). Real-time PCR (qPCR) was performed in triplicate. In a total reaction volume of 20 µL containing 1 µL of cDNA, 0.4 µM of each primer and 1x iQSybrGreen Supermix (Bio-Rad), with initial denaturation at 95 °C for 5 min followed by 40 cycles of 30 sec at 95 °C, and 30 sec at 65 °C, and finally, one cycle of 30 sec at 72 °C. Threshold cycle (Ct) values were obtained. The sequences of TCP1-eta used were: sense 5'-[…]-3' (SEQ ID NO: 1); anti-sense 5'-[…]-3' (SEQ ID NO: 2); and RPS13: sense 5'-[…]-3' (SEQ ID NO: 3); anti-sense 5'-[…]-3' (SEQ ID NO: 4). Standard curves were run for each transcript to assure exponential amplification and to rule out non-specific amplification. Changes in the expression level were calculated following normalization with RPS13. The reactions were run on an iQ5 Real-Time PCR detection system (Bio-Rad, Madrid, Spain).

Male Wistar rats [7] = test: Rat models of AKI: urinary markers by Western blot; type: in vivo
Description: as §2
(§3) Rat models of AKI. Male Wistar rats (220-240 g) were housed under controlled experimental conditions and allowed free access to regular chow and water. […] Rats were allocated in metabolic cages to obtain 24-hour, individual urine samples. Blood was drawn with a needle from the tail vein, and plasma was obtained by centrifugation and, at the end of the treatments, kidneys were perfused with heparinized saline and immediately dissected. Half of the kidney was fixed in paraformaldehyde for histological studies, and the rest was frozen at -80 °C for biochemical analysis.

Male Wistar rats [8] = test: Rat models of AKI: renal histopathology; type: in vivo; conditions: hematoxylin and eosin, cisplatin 5 mg/kg i.p., gentamicin 150 mg/kg per day i.p. for 6 days
Description: as §3
Renal histopathology. Paraformaldehyde-fixed tissue samples were immersed in paraffin, cut into […] slices and stained with hematoxylin and eosin.

MCT cells [9] = test: Apoptotic cells / death phenotype by light microscopy; conditions: medium without serum, 18 h, cisplatin 0-30 µM, cycloheximide 50-800 µM
Procedure: as §4

MCT cells [10] = test: Western blot / 2D proteomic analysis of culture medium and cell extracts; conditions: 18 h, cisplatin 0-30 µM, cycloheximide 50-800 µM
Procedure: as §5, §6

Male Wistar rats [11] = test: Rat models of AKI: renal function (plasma creatinine); type: in vivo; conditions: cisplatin single i.p. 5 mg/kg, gentamicin i.p. 150 mg/kg per day for 6 days
Procedure: Renal function. Renal function was monitored by means of plasma creatinine and urea and urinary protein concentration, which were determined with commercial colorimetric kits (Quantichrom Creatinine and Quantichrom Urea Assay Kits, BioAssay Systems, Hayward, CA, USA), according to the manufacturer's instructions.

[12] = rats, cisplatin single i.p. 5 mg/kg, gentamicin i.p. 150 mg/kg per day for 6 days, Western blot

C[C@@H]1C[C@@H]([C@H](O)CC2CC(=O)NC(=O)C2)C(=O)[C@@H](C)C1 [Cycloheximide, cycloheximide]
cell viability (MCT cells [1]): reduces cell viability
number of apoptotic cells / apoptotic phenotype (MCT cells [2]): induces apoptosis
TCP1-eta in the culture medium (MCT cells [3]): increases TCP1-eta secretion to the culture medium
executioner caspase 3 (active caspase 3, p19 fragment) (MCT cells [3]): executioner caspase 3 activation

N.N.[Cl][Pt][Cl] [cisplatin]
caspase (DEVDase) activity (MCT cells [4]): increased
internucleosomal DNA fragmentation (MCT cells [5]): increased
TCP1-eta gene expression (MCT cells [6]): progressive TCP1-eta gene induction with increasing concentrations of the drug
urinary NGAL (Male Wistar rats [7]; [12]): significantly increases
urinary TCP1-eta (Male Wistar rats [7]; [12]): significantly increases
pattern of renal damage (region affected) (Male Wistar rats [8]): both the cortex and the outer medulla
number of apoptotic cells / apoptotic phenotype (MCT cells [9]): increased the number of apoptotic cells
TCP1-eta in the culture medium (MCT cells [10]): increased with increasing concentrations of cisplatin

O=C(O)/C=C\C(=O)O [sodium maleate]
urinary TCP1-eta (Male Wistar rats [7]; normal rats, single i.v. injection of sodium maleate 400 mg/kg): TCP1-eta is excreted with the urine

gentamicin
Plasma creatinine (Male Wistar rats [11]): significantly increases
urinary NGAL (Male Wistar rats [7]; [12]): significantly increases
urinary TCP1-eta (Male Wistar rats [7]; [12]): significantly increases
pattern of renal damage (region affected) (Male Wistar rats [8]): mostly the cortex and, to a lesser extent, the medulla
